Measured values reported in ChEMBL document CHEMBL1134102, “The binding of arylguanidines at 5-HT(3) serotonin receptors: a structure-affinity investigation” (Bioorg Med Chem Lett, 2001).

Target: Serotonin 3 (5-HT3) receptor
Test: Binding affinity to 5-HT3 serotonin receptor in NG 108-15 neuroblastoma glioma cells using [3H]GR-65630 radioligand.

Row | Ki | Compound
1 | 0.0007 µM | N=C(N)Nc1cc(Cl)c(Cl)c(Cl)c1
2 | 0.018 µM | N=C(N)NC(=N)Nc1cccc(Cl)c1
3 | 0.032 µM | NC(N)=Nc1cccc(Cl)c1
4 | > 10 µM | Nc1nc(Nc2cccc(Cl)c2)n[nH]1
5 | 0.0027 µM | N=C(N)NC(=N)Nc1cc(Cl)c(Cl)c(Cl)c1
6 | 0.005 µM | N=C(N)Nc1cc(Cl)cc(Cl)c1
7 | 0.45 µM | C/N=C(\N)Nc1cccc(Cl)c1
8 | 0.89 µM | Cc1ccc(NC(=N)N=C(N)N)cc1
9 | 0.99 µM | COc1ccc(NC(=N)N)cc1
10 | 0.018 µM | NC(N)=Nc1ccc2ccccc2c1
11 | > 10 µM | C/N=C(\NC)Nc1cccc(Cl)c1
12 | 0.0018 µM | N=C(N)N=C(N)Nc1cc(Cl)cc(Cl)c1
13 | 0.0031 µM | N=C(N)Nc1ccc(Cl)c(Cl)c1
14 | 0.326 µM | N=C(N)Nc1ccc(Cl)cc1
15 | 6.2 µM | CN(C(=N)N)c1cccc(Cl)c1
16 | 0.012 µM | N=C(N)NC(=N)Nc1ccc(Cl)c(Cl)c1
17 | 2.71 µM | COc1ccc(NC(=N)N)cc1OC
18 | 0.014 µM | N=C(N)N=C(N)Nc1ccc2ccccc2c1
19 | 0.036 µM | N=C(N)Nc1ccc(Cl)c(C(F)(F)F)c1
20 | 0.442 µM | Cc1ccc(NC(=N)N)cc1
21 | 0.23 µM | N=C(N)Nc1ccc(C(F)(F)F)cc1
22 | 0.274 µM | N=C(N)Nc1ccc2c(c1)OCO2
23 | 2.44 µM | NC(N)=Nc1cccc(C(F)(F)F)c1

Row | Compound | Ki
24 | Clc1cccc(NC2=NCCN2)c1 | > 10 µM
25 | N=C(N)NC(=N)Nc1ccc(Cl)cc1 [4-CHLOROPHENYLBIGUANIDE] | 0.21 µM
